# From patent US9828332B2, “Non-peptide BDNF neurotrophin mimetics” (PHARMATROPHIX, INC., priority 2013, dated 2017)
# Where “and” joins values, the source holds several entries; their conditions need not be identical. Identical values can stand only once. Like-named read-outs stand apart in the source and are kept apart here.
# What was measured:
# [1] = Determination of the brain-to-plasma ratio after intraperitoneal administration (plasma and brain homogenate levels by LC-MS/MS); format: in vivo, male CD-1 mice; design: Brain Tissue Homogen. Conc / Brain Tissue Conc: unit not given here
# Description: (§1) In this study, the brain-to-plasma ratio of Compound 2 and Compound 3 was evaluated after intraperitoneal dosing in fasted male CD-1 mice. Test compounds were dosed at 50 mg/kg in sterile water for injection. Plasma and brain homogenate levels were determined at 1 and 3 hours post dose by LC-MS/MS.
# The dosing solution was diluted in triplicate into mouse plasma and analyzed in parallel with the study samples. The nominal dosing solution concentration was used in all calculations. All concentrations are expressed as […] of the free drug. All data are expressed as ng/mL (equivalent to ng/g for calculation of brain:plasma ratio) of the free drug. Samples that were below the limit of quantitation were not used in the calculation of averages.
# Brain-to-plasma ratios were determined by dividing the brain concentration in ng/g by the plasma concentration in ng/g.
# Brain samples were homogenizcd with a Virsonic 100 ultrasonic homogenizer. Each brain sample was first weighed, and then an appropriate volume of 20:80 methanol:water was added to make a 4 mL/1 gram sample. Samples were then homogenized on ice, and stored frozen until analysis.
# Standards samples were prepared in either CD-1 Mouse plasma containing K2EDTA as an anticoagulant or CD-1 mouse brain homogenate. Working solutions (200 μg/mL and/or 20 μg/mL for each test compound) was prepared in 50:50 ACN:water. Then, a nine-point calibration curve was prepared at concentrations of 2000, 1500, 1000, 500, 100, 50, 20, 10, and 5 ng/mL of each test compound by serial dilution; or for a high-sensitivity method, another nine point calibration curve was prepared at concentrations of 200, 150, 100, 50, 10, 5, 2, 1, and 0.5 ng/mL of each test compound by serial dilution. Standard samples were treated identically to the study samples.
# Plasma and brain homogenate samples were extracted via acetonitrile precipitation on a Tomtec Quadra 96-Model 320 liquid handling system in a 96-well plate format.
# [2] = Observations and adverse reactions after intraperitoneal administration; format: in vivo, CD-1 mice; settings: IP 50 mg/kg in sterile water for injection
# Description: as §1
# [3] = IP 50 mg/kg, 1.0 hr post dose, individual mouse, 50 mg/kg
# [4] = IP 50 mg/kg, 3.0 hr post dose, individual mouse, 50 mg/kg
# [5] = male, CD-1, mouse, brain/plasma, ip, 50 mg/kg, 1 hour post dose, mean of mice, read-out: Average B:P Ratio
"B:P Ratio [1, 3]","Brain Tissue Conc [1, 3]","Plasma Conc [1, 3]","Brain Tissue Homogen. Conc ([1]; IP 50 mg/kg, 3.0 hr post dose, individual mouse)","Plasma Conc [1, 4]","concentration at 3 h ([1]; male, CD-1, mouse, brain, ip, 50 mg/kg, 3 hours post dose, read-out: brain tissue concentrations (BLOQ)) [ng/mL]","Kp at 1 h [1, 5]","Average B:P Ratio ([1]; IP 50 mg/kg, 1 hour post dose, mean of mice, 50 mg/kg)","B:P Ratio ([1]; IP 50 mg/kg, 1.0 hr post dose, individual mouse)","Average B:P Ratio ([1]; IP 50 mg/kg, 3 hours post dose, mean of mice, 50 mg/kg)","B:P Ratio [1, 4]","Kp at 1 h ([1]; male, CD-1, mouse, brain/plasma, ip, 50 mg/kg, 1.0 hr post dose, individual mouse, read-out: B:P Ratio)","Kp at 3 h ([1]; male, CD-1, mouse, brain/plasma, ip, 50 mg/kg, 3 hours post dose, mean of mice, read-out: Average B:P Ratio)","concentration at 1 h ([1]; male, CD-1, mouse, plasma, ip, 50 mg/kg, 1.0 hr post dose, individual mouse, read-out: Plasma Conc) [ng/mL]",SMILES,adverse effects after intraperitoneal administration [2]
0.01 and 0.1,4.19,675 ng/mL and 30.7 ng/mL and 41.8 ng/mL,BLQ,3.13 ng/mL and 2.22 ng/mL and 16.5 ng/mL,< 0.5,0.056,–,–,–,–,–,–,–,"COCCNC(=O)c1cc(C(=O)NCCOC)cc(C(=O)NCCOC)c1 [Compound 2, N^1,N^3,N^5-tris(2-methoxyethyl)benzene-1,3,5-tricarboxamide]",No adverse effects were observed
–,–,3010 ng/mL and 2440 ng/mL,–,17.2 ng/mL and 36 ng/mL and 71.7 ng/mL,–,0.038 ± 0.004,0.038,0.04,0.525,0.78 and 0.24 and 0.55,0.04,0.525 ± 0.275,2770,"COCCN(C)C(=O)c1cc(C(=O)N(C)CCOC)cc(C(=O)N(C)CCOC)c1 [Compound 3, N^1,N^3,N^5-tris(2-methoxyethyl)-N^1,N^3,N^5-trimethylbenzene-1,3,5-tricarboxamide]",No adverse effects were observed
